Patent US11738065B2, “Polypeptides and analogues thereof for use in the treatment of diabetes and bone disorders” (UNIVERSITY OF ULSTER, priority 2015, dated 2023)
Where no end group is shown, it is not given here. [ ]: non-standard residue; d: D form.

How the values were obtained:
SaOS-2 cells [1] = experiment: cAMP production in SaOS-2 cells; assay type: cell-based, Human; details: 60 min, 200 μM IBMX
Experimental: SaOS-2 cells were seeded at a density of 5e4 cells in 96-well plates. Cells were cultured in α-MEM 1× media supplemented with 10% FBS for 24 hours in order to allow attachment to the plate. Before the experiment, cells were washed with Hank's Balanced Salt Solution (HBSS). Cells were then incubated with various concentrations (1e-12-1e-6 M) of test peptides of the invention supplemented with 200 μM of 3-isobutyl-1-methylxanthine (IBMX). Plates were then incubated for 60 minutes at 37° C. Following this step, cells were washed 3 times with 150 μl PBS. Cell lysis was performed with 150 μl cell lysis buffer (R&D Systems) and a freeze (−20° C.)-thaw (37° C.) cycle was carried out. The contents were then collected into 500 μl tubes and centrifuged at 600 rpm for 10 min (4° C.). The supernatant was collected and cAMP was measured using a cAMP assay kit (R&D Systems) according to the manufacturer's instructions. The concentration of cAMP was calculated from a standard curve of cAMP ranging from 0 to 240 pmol/ml.

SaOS-2 cells [2] = experiment: TGF-β release from SaOS-2 cells; assay type: cell-based, Human; details: 1e-12-1e-6 M, 8 hours
Experimental: Human osteoblast SaOS-2 cells [sourced from The European Collection of Cell Cultures (ECACC)] were seeded at a density of 2e5 cells/well in 24 well plates [Nunc, Roskilde, Denmark]. The cells were incubated in media [Life Technologies] supplemented with 10% FBS. Before adding test peptides of the invention, the media were changed with fresh 0.1% FBS-containing media 24 h previously. On the day of experimentation, media were removed and 1 ml of respective peptides of the invention GIP/Xenin, GIP/Xenin Asp and GIP/Xenin Glu [(DAla2)GIP/xenin-8-Gln, (DAla2)GIP/xenin-8-Gln(L-Asp), and (DAla2)GIP/xenin-8-Gln(L-Glu) respectively] (1e-12-1e-6 M) were added to each well. The plates were then incubated at 37° C. for a period of 8 hours. After incubation, media was collected and TGF-β released in the supernatant measured using a TGF-β Immunoassay kit (Quantikine, R&D Systems) according to the manufacturer's instructions. The concentration of TGF-β was calculated from a standard curve of recombinant human TGF-β ranging from […].

SaOS-2 cells [3] = experiment: IGF-1 release from SaOS-2 cells; assay type: cell-based, Human; details: 1e-12-1e-6 M, 8 hours
Experimental: SaOS-2 cells were seeded at a density of 2e5 cells/well in 6-well plates in 10% FBS containing media. Media were changed 24 hours prior to experimentation with 0.1% FBS. Media was then removed, followed by an addition of 1 ml of test peptides of the invention (1e-12-1e-6 M). Plates were incubated at 37° C. for 8 hours. After incubation, media was collected and IGF-1 released in the supernatant was measured using IGF-1 Immunoassay kit (Quantikine, R&D Systems) according to the manufacturer's instructions. The concentration of IGF-1 in the samples was determined from a standard curve of recombinant human IGF-1 in the range of 0-60 ng/ml.

high fat fed mice [4] = experiment: 42 day once daily study in high fat fed mice (body weight, composition, food intake, non-fasting glucose); assay type: in vivo; details: 25 nmol/kg once daily, 42 days
Excerpt: (§1) FIG. 10 illustrates body weight as measured for 3 days before and 42 days during (indicated by black horizontal bar) once daily treatment with saline vehicle (0.9% w/v NaCl), GIP/Xenin hybrid, GIP/Xenin hybrid Asp and GIP/Xenin hybrid Glu (each peptide at 25 nmol/kg bw). Values represent means±SEM for 5 mice;
FIG. 11A-11B illustrate (FIG. 11A) % Fat mass and (FIG. 11B) % Lean mass as measured by DEXA scanning in high fat fed mice following 42 days treatment with GIP/Xenin hybrid, GIP/Xenin hybrid Asp and GIP/Xenin hybrid Glu. Values represent means±SEM for 3-5 mice;
as §1, with “12” for “10”, “cumulative energy intake” for “body weight”, “days” for “days during”, “bar) during” for “bar)”, “3-5 mice. ^ΔP<0.05, ^ΔΔP<0.01, ^ΔΔΔP<0.001 compared to saline control;” for “5 mice;”
as §1, with “13” for “10”, “non fasting blood glucose” for “body weight”, “mice; […]” for “mice;”

high fat fed mice [5] = experiment: Glucose tolerance test after 42 days treatment; assay type: in vivo
Experimental: FIG. 14A-14B illustrate tests conducted after once daily treatment with saline, GIP/Xenin hybrid, GIP/Xenin hybrid Asp and GIP/Xenin hybrid Glu for 42 days. (FIG. 14A) Blood glucose before and after i.p injection of glucose (18 mmol/kg bw) alone in 18 hr fasted mice. (FIG. 14B) AUC values for blood glucose for 0-105 min are shown in insets. Values represent means±SEM for 6-7 mice. *P<0.05, **P<0.01 and ***P<0.001 compared to saline control;

high fat fed mice [6] = experiment: Insulin tolerance test after 42 days treatment; assay type: in vivo; details: insulin 25 U/kg i.p., non-fasted
Experimental: FIG. 15A-15B illustrate Blood glucose (FIG. 15A) and blood glucose AUC (FIG. 15B) values for 0-105 min (shown in inset) following 42 days treatment with saline, GIP/Xenin hybrid, GIP/Xenin hybrid Asp and GIP/Xenin hybrid Glu (each peptide at 25 nmol/kg bw), and subsequent insulin (25 U/kg bw) injection intraperitoneally (at t=0) in non-fasted mice. Values represent means±SEM for 5 mice. *P<0.05, **P<0.01 and ***P<0.001 compared to saline control;

high fat fed mice [7] = experiment: DEXA bone mineral density and content after 42 days treatment; assay type: in vivo; details: P<0.05 and P<0.01 respectively
Experimental: The DEXA (dual energy X-ray absorptiometry) analysis [Lunar PIXImus, Inside Outside Sales] was performed on unconscious mice and the whole body was scanned. Various parameters like bone mineral density (BMD), bone mineral content (BMC), lean mass, fat mass and percentage of total fat were measured according to the manufacturer's instructions.

high fat fed mice [8] = experiment: Three-point bending of bone after 42 days treatment; assay type: in vivo
Experimental: Femur and tibia bones were extracted at the end of the experiment using a scalpel and fine scissors, soft tissue removed and stored in 70% ethanol. Three-point bending strength was measured with a constant span length of 10 mm. Femurs were positioned horizontally with the anterior surface facing upwards, centered on the support and the pressing force was applied vertically to the midshaft of the bone. Each bone was tested with a loading speed of 2 mm/min until failure with a 90 N load cell. The load-time curve obtained was converted into a load-displacement curve by the MTS testSuite TW software (MTS, Créteil, France). Ultimate load and ultimate displacement were respectively defined as the maximum load and maximum displacement recorded before break-down of the bone. Stiffness was calculated as the slope of the elastic deformation of the bone. The total absorbed energy was defined as the total area under the load-displacement curve and represents the total energy absorbed by the midshaft femur. The yield was defined as the load necessary to initiate the transformation from elastic to plastic deformation. The post-yield energy was defined as the area under the load-displacement curve from yield until failure and represents the energy absorbed by bone during plastic deformation.

high fat fed mice [9] = experiment: Microcomputed tomography of tibia trabecular and cortical bone after 42 days treatment; assay type: in vivo; details: microCT
Experimental: The tibia was used to investigate trabecular and cortical bone microstructural morphology by microCT analysis with a Skyscan 1172 microtomograph (Bruker, Kontich, Belgium) equipped with an X-ray tube working at 69 kV/100 μA. The pixel size was fixed at 8.3 μm, the rotation step at 0.25° and exposure was performed with a 0.5-mm aluminum filter. Bone mass and morphometry parameters were calculated with the CTan software (release 1.11.4.2, Bruker). The trabecular parameters were assessed at the volume of interest (VOI), located 1 mm below the growth plate and spanning 2.5 mm in height. Trabecular bone volume (BV/TV, in %), trabecular number (Tb.N, in 1/mm) and trabecular separation (Tb.Sp, in μm) were measured according to guidelines and nomenclature proposed by the American Society for Bone and Mineral Research. Cortical parameters were determined at the midshaft tibia with a lab-made routine using ImageJ. […] (Ma.Ar), cortical area (Ct.Ar), total area (Tt.Ar), cortical thickness (Ct.Th, in μm) and cross-sectional moment of inertia (J in mm4) were also measured according to guidelines and nomenclature on bone histomorphometry proposed by the American Society for Bone and Mineral Research.

| Substance | Lowest effective concentration for cAMP production (SaOS-2 cells [1]) | TGF-β release from SaOS-2 cells (SaOS-2 cells [2]) | IGF-1 release from SaOS-2 cells (SaOS-2 cells [3]) | Body weight, fat and lean mass, food intake (high fat fed mice [4]) | Blood glucose concentrations after glucose challenge (high fat fed mice [5]; glucose 18 mmol/kg) | Hypoglycaemic response to exogenous insulin (high fat fed mice [6]) | Tibia bone mineral density (high fat fed mice [7]) | Bone ultimate load and stiffness (high fat fed mice [8]) | Cortical bone area, thickness and moment of inertia / structural properties of cortical bone (high fat fed mice [9]) | Blood glucose overall AUC after glucose challenge (high fat fed mice [5]; 0-105 min, glucose 18 mmol/kg) | Blood glucose at 30, 60 and 105 min after glucose challenge (high fat fed mice [5]; glucose 18 mmol/kg i.p.) |
| --- | --- | --- | --- | --- | --- | --- | --- | --- | --- | --- | --- |
| TYR-(d)ALA-GLU-GLY-THR-PHE-ILE-SER-ASP-TYR-SER-ILE-ALA-MET-HIS-PRO-GLN-GLN-PRO-TRP-ILE-LEU-GLY-ALA-ALA-GLU-GLU-GLU-GLU-GLU-GLU (Y[dA]EGTFISDYSIAMHPQQPWILGAAEEEEEE; also: Gln side-chain L-Glu modification; listed as Homo sapiens) [GIP/Xenin Glu] | 1000 nM | dose-dependently stimulated | dose-dependently stimulated | no significant change | also reduced blood glucose concentrations, but not as effectively as GIP/Xenin Asp | more pronounced hypoglycaemic response | reduced | negative effects (P<0.05 to P<0.001) | reduced |  |  |
| TYR-(d)ALA-GLU-GLY-THR-PHE-ILE-SER-ASP-TYR-SER-ILE-ALA-MET-HIS-PRO-GLN-GLN-PRO-TRP-ILE-LEU-GLY-ALA-ALA-ASP-ASP-ASP-ASP-ASP-ASP (Y[dA]EGTFISDYSIAMHPQQPWILGAADDDDDD; also: Gln side-chain L-Asp modification; listed as Homo sapiens) [GIP/Xenin Asp] | 10 nM | dose-dependently stimulated | dose-dependently stimulated | no significant change |  |  | reduced |  |  | significant (P<0.05) reduction in overall AUC measures | significantly (P<0.01 to P<0.001) |
